Reference: patent US11723897B2, “Fatty acids as anti-inflammatory agents” (University of Pittsburgh—Of the Commonwealth System of …, priority 2009, dated 2023)

Experiments:
[1] = target: T1, PPARγ (Homo sapiens, UniProt P37231); experiment: PPARγ beta-lactamase reporter assay; format: cell-based; conditions: concentrations 0.5-10,000 nM; read-out: PPARγ activation EC50
T1 sequence (P37231 1-505): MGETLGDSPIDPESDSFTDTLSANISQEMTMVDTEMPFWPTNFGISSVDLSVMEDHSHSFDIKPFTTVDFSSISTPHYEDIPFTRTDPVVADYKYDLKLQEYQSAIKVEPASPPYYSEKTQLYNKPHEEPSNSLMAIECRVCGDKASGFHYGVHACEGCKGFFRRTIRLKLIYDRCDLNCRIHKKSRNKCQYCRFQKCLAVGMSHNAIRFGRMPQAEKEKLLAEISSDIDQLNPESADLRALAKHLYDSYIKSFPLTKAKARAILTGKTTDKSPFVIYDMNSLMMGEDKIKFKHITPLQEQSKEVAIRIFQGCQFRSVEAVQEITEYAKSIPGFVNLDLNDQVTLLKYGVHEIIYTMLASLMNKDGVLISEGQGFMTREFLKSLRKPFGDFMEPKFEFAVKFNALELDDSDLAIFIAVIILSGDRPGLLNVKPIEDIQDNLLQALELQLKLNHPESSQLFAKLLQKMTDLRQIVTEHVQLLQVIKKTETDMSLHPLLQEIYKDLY
Experimental: FIG. 11a-11e illustrates modulation of anti-oxidant and inflammatory responses by 17-oxoDHA and 17-oxoDPA. RAW264.7 cells were treated with increasing concentration of 17-oxoDHA and 17-oxoDPA. (a) Cells were harvested 1 h after treatment and Nrf2 levels were quantified in nuclear extracts. (b) Cells were harvested 18 h after treatment and HO-1 and Nqo1 (upper band) levels were measured by western blot. (c, d) RAW264.7 cells were treated with increasing concentration of 17-oxoDHA and 17-oxoDPA for 6 h and Kdo2+IFNγ were added. Samples were collected at 12 h. IL-6, MCP-1 and IL-10 levels were measured in the cell media by Quantikine ELISA Kit (R&D Systems) and normalized by the total protein content (c); Nitrite levels were measured in the cell media and normalized by the total protein content and iNOS and Cox-2 levels were measured in total cell lysates (d); (e) PPARγ beta-lactamase reporter assays were performed for Rosiglitazone, 17-OxoDPA, 17-OxoDHA, 15d-PGJ2, 17-hydroxyDHA, DPA, and DHA with concentrations ranging from 0.5-10,000 nM.
The observation that oxo-fatty acids, such as 15d-PGJ2^30, 5-oxoEPA, 6-oxoOTE, and the synthetic 4-oxoDHA^31, covalently bind and activate the peroxisome proliferator-activated receptor γ (PPARγ), prompted the present inventors to test the ability of 17-oxoDPA, and 17-oxoDHA to activate PPARγ. […]

[2] = test system: EFAD formation in RAW264.7 cells; experiment: Inhibitor study: EFAD formation in RAW264.7 cells activated with Kdo2 and IFNγ; format: cell-based, murine
[3] = test system: RAW264.7 cells; experiment: GS-EFAD adducts in activated RAW264.7 cells; format: cell-based, murine; conditions: activated RAW264.7 cells + ASA
[4] = test system: bone marrow-derived macrophage (BMDM) cells; experiment: EFAD formation in activated bone marrow-derived macrophages ± ASA; format: cell-based, C57BL/6 murine; conditions: activated with Kdo2 and IFNγ, treated with ASA
[5] = target: T2, Ovine placental COX-2 (Ovis aries, UniProt P79208); experiment: In vitro COX-2 reaction with DPA ± ASA; format: biochemical; conditions: purified ovine COX-2 + DPA 10 μM, 2 mM ASA
T2 construct: Ovine placental COX-2 (Cayman 60120) was also from Cayman Chemicals; purchased Cayman Chemicals 60120; host or cells: ovine placenta (tissue-derived, from the word 'placental')
T2 sequence (P79208 17-603): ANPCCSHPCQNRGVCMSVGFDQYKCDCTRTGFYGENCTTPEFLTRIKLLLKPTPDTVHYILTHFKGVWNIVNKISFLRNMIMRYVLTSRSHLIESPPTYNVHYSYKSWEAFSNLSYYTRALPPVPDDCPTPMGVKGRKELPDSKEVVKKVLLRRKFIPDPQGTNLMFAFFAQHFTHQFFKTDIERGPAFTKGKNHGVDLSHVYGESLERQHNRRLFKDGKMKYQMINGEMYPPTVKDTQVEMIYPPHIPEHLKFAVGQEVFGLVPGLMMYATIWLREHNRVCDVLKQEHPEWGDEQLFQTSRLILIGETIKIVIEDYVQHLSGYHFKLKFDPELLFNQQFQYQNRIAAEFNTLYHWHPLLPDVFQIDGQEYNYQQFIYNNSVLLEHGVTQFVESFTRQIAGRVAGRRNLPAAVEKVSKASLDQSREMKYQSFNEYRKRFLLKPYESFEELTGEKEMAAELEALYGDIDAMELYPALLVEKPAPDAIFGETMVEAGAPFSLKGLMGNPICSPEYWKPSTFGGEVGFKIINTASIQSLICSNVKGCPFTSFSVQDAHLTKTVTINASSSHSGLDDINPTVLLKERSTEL

[6] = RAW264.7 + Kdo2 + IFNγ, 20 h, ↓ decrease, ↑ increase, NE (not defined in patent)

CCCCCC=CC=C1C(=O)C=C[C@@H]1CC=CCCCC(=O)O [15d-PGJ2, 15-deoxy-Δ (12,14)-prostaglandin J2]
EC50 [1]: ~25 nM

CC(=O)Oc1ccccc1C(=O)O [ASA, acetyl salicylic acid]
Increase of EFAD formation ([2]; ASA 200 μM, all EFADs except EFAD-4 and EFAD-6): about 2.5 fold
Effect of inhibitor on EFAD-1 formation [2, 6]: ↑
Effect of inhibitor on EFAD-2 formation [2, 6]: ↑
Effect of inhibitor on EFAD-3 formation [2, 6]: ↑
Effect of inhibitor on EFAD-4 formation [2, 6]: ↓
Effect of inhibitor on EFAD-5 formation [2, 6]: ↑
Effect of inhibitor on EFAD-6 formation [2, 6]: ↓
Formation of GS-adducts [3]: enhanced the formation of GS-adducts
Extent of EFAD formation in BMDM [4]: increased about two to three fold
Formation of OH-DPA by COX-2 [5]: increased the rate and extent of formation
